Patent US20070042967A1, “Proteaseome inhibitors for the treatment of herpesviridae infected individuals” (priority 2002, published 2007)
Where a SMILES comes first, the peptide text is derived from it. The star is where a group is joined. Cbz = O=C(OCc1ccccc1)*

Legend:
[1] = test system: HCMV IE1/2 enhancer/promoter; test: TNFα stimulation / basal activity of the HCMV IE1/2 enhancer/promoter, CAT reporter (pRR55) in HL-60 cells; assay type: cell-based, HCMV strain Ad169
Procedure: As a model for undifferentiated monocyte/granulocyte progenitor cells HL-60, cells (ATCC No. CCL 240) expressing high levels of CD34+ but low levels of typical differentiation antigens like CD11a-c and CD14 on their surface were used. Furthermore, HL-60 cells have retained the ability, to differentiate into granulocytes and monocytes depending on the stimulus. HL-60 cells were grown in RPMI 1640 medium supplemented with 10% fetal calf serum (both certified endotoxin-free, Biochrome, Germany) at 37° C. in a 5% humidified atmosphere. […] The cells were grown up to 1×10^6 cells per ml. HL-60 cells were transiently transfected with the plasmid pRR55 containing the native HCMV strain Ad169 IE1/2 enhancer/promoter region between nucleotides […] and +52 relative to the transcription start site upstream of the chloramphenicol acetyl transferase (CAT) reporter gene (Fickenscher et al., 1989). Plasmid DNA was prepared using the endofree Maxi Kit (QUIAGEN, Germany or Machery & Nagel, Germany) and stored in aliquots at −20° C. Transient transfection was performed using the DEAE transfection protocol (Stein et al., 1993). Per transfection reaction 5×10^5 cells were washed once with FCS-free medium and then resuspendend in 250 μl transfection buffer containing 1×TBS (24 mM Tris-HCl, pH 7.4, 137 mM NaCl, 5 mM KCl, 0.7 mM CaCl2, 0.5 mM MgCl2, 0.6 mM Na2HPO4), 2.5 μg plasmid DNA (1 μg/μl ) and 5 mg/ml DEAE dextran (Pharmacia-Amersham, Germany). To avoid differences in transfection efficiency, cells for parallel probes were transfected in one reaction and splitted after transfection. Transfection occurred for 1 h at 37° C. After that the cells were washed once with FCS-free RPMI 1640 medium and resuspended in medium containing 10% FCS at a concentration of 5×10^5 cells/5 ml. MG-132 (Calbiochemie, Germany) was dissolved in ethanol (5 μg/μl) and stored in aliqotes at −20 ° C. MG-132 was added into the medium at time zero after transfection and 1 h before TNFα (5 ng/ml, human recombinant TNFα; PAN, Germany, stored in aliquots containing 10 μg/μl at −80° C.). The cells were harvested 48 h after transfection, washed once with PBS and resuspended in 70 μl CAT buffer 1 (0.25 M Tris/HCl, pH 7.8, 0.5 mM EDTA). After 10 min of incubation on ice, cell extracts were prepared by repeated frozen/thawing of the cells (routinely 5 times), 10 min incubation at 65 ° C. to inactivate isoenzymes. Cell debris was removed by centrifugation at 12000 rpm for 10 min in an Eppendorf centrifuge. Cell extracts were measured for their protein concentrations using the method of Bradford (Bradford, 1976) and Bradford reagent (Sigma, Germany). Equal quantities of protein were used in the CAT-assay as described by Gorman et al., 1982. 20 μl lysates were incubated with [^14C]chloramphenicol (Hartman Analytic, Germany) and acetyl-CoA (Sigma, Germany) at 37° C. Reaction was stopped by extraction with ethylacetat (Merck, Germany). The acetylated products were quantified after separation by thin-layer chromatography using a thin layer scintillator. […] In the presence of 0.1 μg/ml MG-132 reduced TNFα stimulation by 50% (FIG. 1).
The reporter gene plasmid pRR55 contains the whole HCMV IE1/2 enhancer/promoter region between nucleotides +52 and −637 with respect to the IE1 transcriptions start site, upstream of the chloramphenicol acetyltransferase (CAT) gene [Fickenscher H, Stamminger T, Riiger R & Fleckenstein B. The role of a repetetive palindrormic sequence element in the human cytomegalovirus major immediate early enhancer. J Gen Virol 1989; 70:107-123.]. The plasmid was kindly provided by T. Stamminger (Eriangen, Germany). For transient transfection of HL-60 cells we used the DEAE dextran method as described earlier [Stein J, Volk H D, Liebenthal C, Kruger D H & Prosch S. Tumor necrosis factor alpha stimulates the activity of the human cytomegalovirus major immediate early enhancer/promoter in immature monocytic cells. J Gen Virol 1993; 74:2333-2338]. […]

[2] = test system: HL-60 cells; test: Cytotoxic effects on HL-60 cells; assay type: cell-based; conditions: at 0.5 and 0.1 μg/ml
Procedure: (§1) Granulocyte/monocyte progenitor like HL-60 cells (ACC CCL 240) were grown in RPMI 1640 medium supplemented with 10% foetal calf serum (FCS, both from Biochrom, Germany and certified to be endotoxin free). Permissive human embryonal lung fibroblasts (HELF) were grown as monolayer in Dulbecco's modified Eagle's medium (BioWhittaker Europa, Belgium) containing 2.0% FCS. Virus stocks of HCMV strain AD169. of laboratory-derived ganciclovir (GCV)-resistant viruses XbaF 4-3-1 and 1117′ 3-1-2 (both are kindly provided from K. K. Biron, Burroughs Wellcome Colo.), HSV 1, strain K, and HSV 2, strain DG (both are patients isolates from the strain collection of this institute) were prepared from the supernatant of infected cell cultures and stored in liquid nitrogen. For standard plaque reduction assays as well as for experiments with immunoblot analysis HELF were seeded into 25 cm^2 cell culture flasks. For preparation of cytosolic and nuclear extracts cells were seeded into 100 cm^2 culture flasks. Generally, confluent monolayers were infected at an multiplicity of infection (m.o.i.) of 0.0002 for standard plaque reduction assay and a m.o.i. of 1 for immunoblot analysis, for preparation of cytosolic and nuclear extracts as well as for measurement of cytokine, chemokine and adhesion molecules in cell culture supernatant. […]

[3] = test system: HELF; test: Toxicity for HELFs; assay type: cell-based, human; conditions: 0.2 μg/ml
Procedure: as §1

Q: What does the source list for `CC(C)C[C@@H](C=O)NC(=O)[C@H](CC(C)C)NC(=O)[C@H](CC(C)C)NC(=O)OCc1ccccc1` [MG-132, N-carbobenzoxy-L-leucinyl-L-leucinyl-L-leucinal] (Cbz-Leu-Leu-Leu-aldehyde)?
A: reduction of TNFα stimulation ([1]; 0.1 μg/ml, HL-60, TNFα 5 ng/ml): 50%; decrease of TNFa-mediated stimulation ([1]; 0.8 μM, HL-60): about 80%; concentrations that inhibit basic, TNFα-independent activity of the IE1/2 enhancer/promoter ([1]; HL-60, without TNFα): above 0.5 μg/ml; cytotoxic effects on HL-60 cells [2]: no cytotoxic effects; toxicity for HELFs [3]: non-toxic
